The target in the assay is UPR counterscreen luciferase reporter, luminescence. The experiment in a line: luciferase reporter activation, UPR counterscreen line – cell-based, luminescence, counter-screen for adaptive UPR activator project, dose response (AID 489027). Background: Reporter assays use an easily measured gene product as a stand-in for the process of interest.

Activity calls are given as the source filed them. No rule for the calls is given here.

Here are results for 85 molecules from PubChem BioAssay AID489027 (Sanford-Burnham Center for Chemical Genomics, 2010).

For the molecule `Cc1ccc2oc(C(Cl)(Cl)Cl)cc(=O)c2c1`, the EC50 is > 80 µM (inactive).

Consider `Cc1ccc2nc(SCC(=O)Nc3cc(C(F)(F)F)ccc3N3CCOCC3)[nH]c2c1`, for which the EC50 entry is “inactive”.

Regarding `CCn1c(/C=C/c2c(C)[nH]c3ccccc23)nc2ccccc2c1=O`, the EC50 was > 80 µM (inactive).

Turning to `CN(C)CCCNC(=O)c1ccc(-c2nc(-c3ccc(Cl)cc3)cs2)cc1`, the EC50 is 9.53 µM.

As for `Cc1cc(C)c2c(n1)sc1c(-c3ccccc3)c(C#N)c(N)nc12`, the EC50 was > 80 µM (inactive).

As for `Oc1cc(-c2cccnc2)cc2cccnc12`, the EC50 result was “inactive”.

As to `CCOc1ccccc1-n1c(SCC(=O)Nc2ccc(CC)cc2)nc2n[nH]c(C)c2c1=N`, the EC50 was 5.3 µM.

As for `CN(C)CCCN(C(=O)c1cc(-c2cccs2)nc2ccccc12)c1nc2ccc(F)cc2s1`, the EC50 was 15.9 µM.

For the molecule `O=C(Nc1ccc([N+](=O)[O-])cc1)C(Cc1ccccc1)N1C(=O)c2cccc3cccc(c23)C1=O` (stereo not given), the EC50 entry was “inactive”.

`Cc1cnc(NC(=O)c2cc3c(C)nn(Cc4ccccc4Cl)c3s2)s1`: the EC50 was > 80 µM (inactive).

For the molecule `COC(=O)Cc1csc(/N=C/c2c(O)n(-c3cccc(C(F)(F)F)c3)c(=O)c3ccccc23)n1`, the EC50 was > 80 µM (inactive).

For the molecule `C=CCN=C1S/C(=C/c2cccc([N+](=O)[O-])c2)C(=O)N1CC=C`, the EC50 entry is “inactive”.

`O=C(Nc1ccc(O)c(-c2nc3ccccc3s2)c1)c1cc(=O)c2ccccc2o1`: the EC50 was > 80 µM (inactive).

Turning to `O=c1cc(CN2CCN(c3ccc(F)cc3)CC2)c2cc3c(cc2o1)CCCC3`, the concentration giving a half-maximal response (EC50) was 8.79 µM.

`COc1ccc(-c2nn(C)c(=O)c3ccccc23)cc1NC(=O)Cn1nc(C)c2ccccc2c1=O`: the EC50 was > 80 µM (inactive).

With `CCOc1ccc(C(=O)Nc2ccc(NC(=O)c3ccco3)c(Cl)c2)cc1Cl`, the EC50 was 8.74 µM.

Regarding `O=C(N/N=C/c1ccccc1Cl)c1[nH]c2ccc(Br)cc2c1-c1ccccc1`, the EC50 result is “inactive”.

Regarding `CC1CN(S(=O)(=O)c2ccc(C(=O)Nc3nc(-c4cc5ccccc5o4)cs3)cc2)CC(C)O1` (stereo not given), the concentration for a half-maximal effect (EC50) is 13.2 µM.

`CCC(=O)Nc1nnc(SCC(=O)c2ccc3c(c2)Cc2ccccc2-3)s1`: the EC50 entry was “inactive”.

In the case of `CCc1ccc2[nH]c3nc(SCC(=O)NNC(=O)c4ccc(C(C)(C)C)cc4)nnc3c2c1`, the EC50 entry is “inactive”.

In the case of `Cc1ccc(Cn2c(=O)n(-c3ccccc3)c(=O)c3ccc(C(=O)NCc4ccco4)cc32)cc1`, the EC50 was > 80 µM (inactive).

On to `COc1ccc(-c2nnc(SCC(=O)Nc3sc4c(c3C#N)CCCC4)n2-c2ccccc2)cc1`, for which the EC50 is 16.1 µM.

Turning to `CCOC(=O)C1=C(O)/C(=C/c2cn(CC(=O)NCC3CCCO3)c3ccccc23)SC1=Nc1ccc(C)cc1` (stereo not given), the EC50 is > 80 µM (inactive).

Consider `Cc1ccc(Nc2nc(-c3c(C)nc4ccccn34)cs2)cc1`, for which the EC50 is > 80 µM (inactive).

For the molecule `Oc1cc(-c2ccc(N3CCCCC3)nc2)cc2cccnc12`, the EC50 was > 80 µM (inactive).

With `O=C1Nc2ccccc2/C1=C/c1ccc([N+](=O)[O-])cc1`, the EC50 entry is “inactive”.

`Cc1ccc(-c2nnn(CC(=O)N(Cc3cccs3)C(C(=O)NC3CCCCC3)c3ccco3)n2)o1` (stereo not given): the EC50 was > 80 µM (inactive).

Regarding `FC(F)(F)c1nc2ccccc2n2c(-c3ccc(Cl)cc3)nnc12`, the concentration giving a half-maximal response (EC50) is 13.6 µM.

Consider `CCOc1ccccc1N=Cc1c(O)c2ccccc2oc1=O`, for which the 50% effective concentration (EC50) is 8.11 µM.

Turning to `COc1cc(OC)cc(C(=O)Nc2ccc3nc4n(c(=O)c3c2)CCCCC4)c1`, the EC50 is > 80 µM (inactive).

With `C=CCN(CC=C)S(=O)(=O)c1ccc(C(=O)Nc2nc3c(s2)CCc2ccccc2-3)cc1`, the EC50 was > 80 µM (inactive).

As to `O=C1c2cccc3cc(Br)cc(c23)C(=O)N1Nc1ccc(Br)cc1`, the EC50 result is “inactive”.

As to `CCOC(=O)C1=C(C)n2c(s/c(=C/c3cccc([N+](=O)[O-])c3)c2=O)=NC1c1ccc(O)c(OC)c1` (stereo not given), the EC50 result was “inactive”.

In the case of `C/C(=N/NC(=O)c1ccc(Cl)s1)c1ccc(NC(=O)COc2ccc(Cl)cc2)cc1`, the EC50 entry was “inactive”.

Take `COc1ccc(-c2csc(C3=C(O)CN(Cc4ccc(Cl)cc4)C3=N)n2)cc1OC`: the EC50 was > 80 µM (inactive).

For `Cc1sc(NC(=O)c2cc(-c3ccc(Cl)cc3)nc3ccccc23)c(C(N)=O)c1C`, the EC50 is > 80 µM (inactive).

For the molecule `CCOC(=O)c1nnc(-c2ccccc2)nc1Sc1ccccc1Cl`, the concentration for a half-maximal effect (EC50) was 14.3 µM.

Regarding `COc1ccc2[nH]c3nc(SCc4nnc(-c5ccc(C)cc5)o4)nnc3c2c1`, the EC50 was 19.7 µM.

As to `CCC(Sc1nnc2c3ccccc3n(CC)c2n1)C(=O)Nc1sc2c(c1C#N)CCCC2` (stereo not given), the EC50 result was “inactive”.

`Oc1ccc(/C=N/Nc2cc(N3CCOCC3)nc(N3CCOCC3)n2)cc1O`: the half-maximal effective concentration (EC50) is 3.8 µM.

In the case of `Cc1ccc(C(=O)Cn2c(C(=O)/C=C/c3ccccc3)nc3ccccc32)cc1`, the EC50 is 10.9 µM.

Consider `COc1ccc(C(=O)/C=C/c2ccc(O)cc2)c(O)c1C/C=C(\C)CCC=C(C)C`, for which the concentration giving a half-maximal response (EC50) was 15.2 µM.

`O=[N+]([O-])c1ccc(N/N=C/c2cccc(O)c2O)c(S(=O)(=O)N2CCOCC2)c1`: the concentration giving a half-maximal response (EC50) is 7.48 µM.

Regarding `COc1cc(NC(=O)c2ccco2)c(C(=O)OCC(=O)c2c[nH]c3ccccc23)cc1OC`, the EC50 is > 80 µM (inactive).

On to `COc1ccc(Nc2nc(N)c([N+](=O)[O-])c(NC3CCCCC3)n2)cc1`, for which the EC50 is > 80 µM (inactive).

`N#CCC(=O)N/N=C/c1cn(Cc2ccc3ccccc3c2)c2ccccc12`: the EC50 is 15.6 µM.

For `C=CCOc1ccc2cccc(/C=N/NC(=O)c3cc4cc([N+](=O)[O-])ccc4s3)c2c1`, the EC50 result is “inactive”.

Turning to `O=C(COc1ccc(Cl)cc1Cl)NN=C1c2ccccc2-c2ccccc21`, the EC50 entry was “inactive”.

With `Cc1ccc(NS(=O)(=O)c2cc([N+](=O)[O-])ccc2N/N=C/c2sc(N3CCOCC3)nc2-c2ccccc2)c(C)c1`, the EC50 was > 80 µM (inactive).

`CC1CCCCC1N1CN=C(Nc2nc3ccccc3s2)NC1` (stereo not given): the EC50 is > 80 µM (inactive).

Turning to `CC(C)(C)C(=O)NC(=S)NNC(=O)C(c1ccccc1)c1ccccc1`, the concentration giving a half-maximal response (EC50) was 2.14 µM.

Take `CC1C/C(=N/Nc2nc3ccccc3[nH]2)CC(C)(C)C1` (stereo not given): the EC50 was 14.6 µM.

For `CCOC(=O)/C=c1\s/c(=C\c2ccc3cc(OC)ccc3c2)c(=O)n1CC(=O)NCC1CCCO1` (stereo not given), the EC50 was > 80 µM (inactive).

Consider `CC(C)=CCCC1(C)C=Cc2c(ccc3c2[nH]c2cc(O)c(C)cc23)O1` (stereo not given), for which the half-maximal effective concentration (EC50) was 19.6 µM.

As to `CCC/C(=N/Nc1ccc(Cl)cc1)c1cnnc(-c2ccccc2)n1`, the EC50 result was “inactive”.

In the case of `CCOC(=O)C1=C(C)N=C2c3ccccc3C(=O)C2C1c1ccc(C)cc1` (stereo not given), the EC50 is > 80 µM (inactive).

`O=C(COC(=O)c1ccc2[nH]c3c(c2c1)CCCC3)Nc1ccccc1Cl`: the EC50 is > 80 µM (inactive).

On to `Cc1ccc(NC(=O)c2c(C)nc3sc(C(=O)NC4CCCC4)c(N)c3c2-c2ccco2)c(C)c1`, for which the EC50 entry is “inactive”.

For the molecule `O=C(NC(=S)Nc1ccc(NC(=O)c2cccs2)cc1)c1cc2ccccc2o1`, the EC50 result is “inactive”.

With `COc1ccc([N+](=O)[O-])cc1COc1ccc2c(-c3ccccc3)cc(=O)oc2c1`, the EC50 result was “inactive”.

Consider `CCNC(=O)c1c(NC(=O)c2cc(-c3cc(C)ccc3O)n[nH]2)sc2c1CCCC2`, for which the EC50 is > 80 µM (inactive).

For the molecule `CCCNC(=O)/C(C#N)=C1\N=C(NC(=O)c2cccs2)c2ccccc21`, the EC50 is > 80 µM (inactive).

Consider `O=C(NCCc1ccc(O)c(O)c1)C1COc2ccccc2O1` (stereo not given), for which the half-maximal effective concentration (EC50) is 16.8 µM.

Regarding `Cc1ccc(/C=C/C(=O)c2cc(Br)ccc2OC(=O)c2ccco2)cc1`, the EC50 entry is “inactive”.

As for `CCCCCC(=O)Nc1ccc(C(=O)N/N=C/c2ccc([N+](=O)[O-])cc2)cc1`, the EC50 entry is “inactive”.

Consider `OCCNc1nc(Nc2ccc(Cl)c(Cl)c2)nc2ccccc12`, for which the half-maximal effective concentration (EC50) is 10.8 µM.

As to `Cc1cc(NC(=O)c2cc(-c3ccccn3)nc3ccc(Br)cc23)no1`, the EC50 is > 80 µM (inactive).

As for `CCOc1ccc(/C=C/C(O)=C2/C(=O)NC3(C)CC2c2ccccc2O3)cc1OC` (stereo not given), the EC50 result was “inactive”.

Regarding `COc1ccc2cc1Oc1ccc(cc1)CC1c3c(cc(OC)c4c3Oc3cc5c(cc3O4)CCNC5C2)CCN1C` (stereo not given), the EC50 was > 80 µM (inactive).

As for `Nc1nc(Nc2cccc(C(F)(F)F)c2)nc(C(F)(F)F)n1`, the EC50 entry was “inactive”.

With `CCOC(=O)c1c(NC(=O)c2cc(C)on2)c2cc([N+](=O)[O-])ccc2n1C`, the EC50 was > 80 µM (inactive).

With `COc1ccc2oc(-c3ccc(C)c(NC(=O)c4ccc(N5CCOCC5)c([N+](=O)[O-])c4)c3)nc2c1`, the EC50 was > 80 µM (inactive).

Take `COc1ccc(C(CCNC(C)c2ccccc2)c2ccc(F)cc2)cc1` (stereo not given): the EC50 result was “inactive”.

On to `CCOc1ccc(-n2nc3ccc(NC(=O)c4ccc5c(c4)OCCO5)cc3n2)cc1`, for which the EC50 entry is “inactive”.

As for `O=C1NC(=O)N(Cc2ccccc2)C(=O)/C1=C\c1ccco1`, the EC50 entry is “inactive”.

Consider `CN(C)S(=O)(=O)c1ccc(N2CCCC2)c(C(=O)Nc2nccs2)c1`, for which the EC50 result was “inactive”.

With `Brc1ccc2c(c1)C(c1ccc(N3CCOCC3)cc1)=NNC(c1cccs1)=N2`, the EC50 result is “inactive”.

For `CCOC(=O)c1nnc(-c2ccc(C)cc2)nc1Sc1cccc(Cl)c1`, the EC50 is > 80 µM (inactive).

As to `O=C(Nc1ccc2nc3n(c(=O)c2c1)CCCCC3)c1ccccc1Cl`, the EC50 is > 80 µM (inactive).

Regarding `CN(C)CC(CCC(CN(C)C)C(O)(c1ccccc1)c1ccccc1)C(O)(c1ccccc1)c1ccccc1` (stereo not given), the concentration giving a half-maximal response (EC50) is 6.06 µM.

`c1ccc(N=Nc2ccc3cccccc2-3)cc1`: the EC50 was 11 µM.

Consider `O=C(NC1CCCCC1)c1cccc2c1C(=O)c1ccc(-c3ccc(OC(F)(F)F)cc3)cc1S2(=O)=O`, for which the EC50 was > 80 µM (inactive).

As for `Brc1cc2c(cc1/C=N/Nc1nc3ccccc3s1)OCO2`, the EC50 is > 80 µM (inactive).

On to `O=C(Nc1ccc(C(F)(F)F)cc1)c1cc(-c2cccnc2)nc2ccc(Br)cc12`, for which the half-maximal effective concentration (EC50) was 11.5 µM.

As for `COc1ccc(-c2cc(=O)oc3c(C)c(OC(=O)c4cccs4)ccc23)cc1`, the EC50 is > 80 µM (inactive).

Usually EC50 stands for the concentration needed to bring the measured effect to its halfway point.
